Data from PMC3944389, “Differential Neuroprotective Effects of 5′-Deoxy-5′-Methylthioadenosine” (PLoS ONE, 2014).

Columns and labels:
[1] = Parallel artificial membrane permeability assay (PAMPA), BBB model, passive diffusion; format: in vitro ADME
Procedure: The PAMPA assay was used to determine the capacity of compounds to cross a blood brain barrier (BBB) model by passive diffusion, measuring the effective permeability of the compounds at an initial concentration of 200 µM. The buffer solution was prepared from a concentrated commercial solution (Pion, Billerica, MA, US) according to the manufacturer's instructions and the pH was adjusted to 7.4 with 0.5 M NaOH. The compound of interest was dissolved in the buffer solution (200 µM), the PAMPA sandwich was separated and the donor well was filled with 195 µL of the compound of interest. The acceptor plate and donor plate were brought together, with the underside of the membrane in contact with the buffer. An 4 µL aliquot of the phospholipid mixture (20 mg/ml) in dodecane was added to the filter of each well, and then 200 µL of buffer solution was added to each acceptor well. The plate was covered and incubated for 4 h at RT in a saturated humidity atmosphere with agitation and with 25 µm of an unstirred water layer in the Gut-Box (Pion). After 4 h, a 150 µL/well sample from the donor plate and a 150 µL/well sample from the acceptor plate were transferred to HPLC vials. Then, 100 µL from acceptor well, 5 µL from the donor well and 5 µL from the t0 samples were injected into an HPLC reverse-phase symmetry C18 column (150 mm×4.6 mm×5 µm, 100 Å; Waters). Transport was confirmed by HPLC mass spectrometry and matrix-assisted laser desorption/ionization time-of-flight (MALDI-TOF) spectrometry to ensure the compound had maintained its integrity. The phospholipid mixture used was a porcine polar brain lipid extract composed of 12.6% phosphatidylcholine (PC), 33.1% phosphatidylethanolamine (PE), 18.5% phosphatidylserine (PS), 4.1% phosphatidylinositol (PI), 0.8% phosphatidic acid and 30.9% of other compounds.

[2] = test system: co-culture of bovine-brain endothelial cells (BBECs) and newborn rat astrocytes; test: In vitro cell model of transport across the BBB; format: in vitro ADME
Procedure: A in vitro cell model of BBB permeability was established using a co-culture of bovine-brain endothelial cells (BBECs) and newborn rat astrocytes. The cells were first cultured in 24-well (Transwell^R) permeable supports with a surface area of 0.33 cm^2 and a pore size of 0.4 µm (Corning), the upper surface of which was coated with collagen type IV and fibronectin. The inserts were then placed upside down in a large petri dish, and 40 µL of a suspension (containing approximately 45,000 astrocytes) was placed on the bottom of each filter. The petri dish was incubated at 37°C for 1 h, and 40 µL of fresh DMEM+S was added to the bottom of each filter every 15 min. The inserts were then transferred back to the plate and incubated at 37°C in 5% CO2 for 3 d. Then, 2 h before seeding the BBECs, the medium was replaced by DMEM+S supplemented with 125 µg/mL heparin and 2 h later, the cells were seeded onto the inserts (45,000 cells per filter). The plate was incubated at 37°C in 5% CO2 for 3 more days, after which the medium was replaced by DMEM+S supplemented with cyclic adenosine monophosphate (cAMP) and RO-20-1724, and kept at 37°C in 5% CO2. On day 8 of the co-culture, the transendothelial electrical resistance (TEER) was measured to determine whether the system was ready for transport studies. To validate the maturity of the model, permeability assays with lucifer yellow (LY) were performed in parallel as a marker of the integrity of the in vitro barrier. During the permeability assay, the samples were co-incubated with LY (20 µM) to assess the integrity of the cellular monolayer during the assay.

[3] = test system: C57Bl mice treated with MPTP; test: MPTP mouse model of Parkinson's disease, stereological counting of TH+ neurons; format: in vivo; details: MTA 30 mg/kg, MSX-3 10 mg/kg (legend: 9 mg/kg), alone or combined; MPTP 30 mg/kg i.p. 5 days
Procedure: 12-week-old male C57Bl mice from Charles River (Barcelona, Spain) were injected i.p. with 30 mg/kg 1-methyl-4-phenyl-1,2,3,6-tetrahydropyridine (MPTP, Sigma-Aldrich) on five consecutive days. Subsequently, MTA (30 mg/kg) and/or the A2A adenosine receptor (A2AR, 10 mg/kg) antagonist, MSX-3 (Sigma-Aldrich), was administered one day before starting MPTP treatment and 1 h after each MPTP injection (n = 6 in each experimental group). We used mice in the MPTP model because rats are resistant to systemic MPTP administration and thus, the rat MPTP model requires stereotaxic MPTP injection directly into the nigrostriatal fibers. […]
The reference volume was calculated according to Cavalieri principles from images obtained with a 2× objective using a point count array. The cross-sectional area of the nucleus was measured and the reference volume (Vr) for the entire nucleus was estimated using the following equation: [drawing 1] where T is the thickness of the sections, a/p is the area of each point and Pi is the number of points that landed within the area. The region of interest to estimate the area was outlined at low magnification (4×), and the number of labeled neurons was calculated under 100× magnification (with oil immersion) using randomized meander sampling and the optical dissector methods. […]

[4] = test system: rat mixed astrocyte-neuron cultures; test: NMDA-induced caspase 3 activation in mixed astrocyte-neuron cultures; format: cell-based; details: pre- or co-treatment; MTA 250 µM, MK-801 10 µM; 300 µM NMDA
Procedure: (§1) Finally, to prepare neuron-astrocyte co-cultures, neurons were resuspended in B27 Neurobasal medium plus 10% of foetal bovine serum (FBS) and then seeded onto a monolayer of astrocytes in 24-well plates at a density of 1–2×10^5 cells per well, the astrocytes having been prepared beforehand, as described elsewhere. One day later, the medium was replaced with B27-Neurobasal plus 10% FBS medium, and the cells were maintained at 37°C in 5% CO2. The cultures were used 8–9 days after plating. Neurons and astrocytes were identified with antibodies against microtubule-associated protein-2 and GFAP, respectively.
To assay N-methyl–D-aspartate (NMDA) excitotoxicity, primary cultures were seeded in 24-well plates at 15×10^4 cells/well, cultured for 7 days in vitro, and treated for different times with the vehicle alone (dimethyl sulfoxide (DMSO) 1%), NMDA (300 µM), NMDA (300 µM) + MTA (250 µM) or NMDA (300 µM) + MK-801, a NMDA receptor antagonist (10 µM). […] Caspase 3 activity was measured in these lysates one hour after the NMDA addition.
Cortical neurons, or mixed cortical neurons and glia, were seeded in poly-L-lysine-coated 6-well culture plates during 7 days in vitro before start the set of experiments. […] The extracts were then centrifuged at 5,000×g for 10 min at 4°C and the protein content was determined by the BCA protein assay. […]

[5] = test system: rat mixed cultures of neurons and astrocytes; test: Oxygen-glucose deprivation (OGD) with iodoacetate, LDH release; format: cell-based; details: IAA 20 and 50 µM; MTA 10 µM or 100 µM, APV 100 µM
Procedure: as §1
Ischemic damage was induced by incubating cell cultures for 1 h in a hyperbaric chamber in a nitrogen-saturated buffer containing: 130 mM NaCl, 5.4 mM KCl, 0.1323 mM CaCl2, 0.26 mM NaHCO3, 0.8 mM MgCl2, 1.18 mM NaH2PO4, 10 mM sucrose (OGD plus sucrose) and iodoacetate (IAA, 20 or 50 µM). IAA is a glycolytic blocker typically used in OGD experiments to simulate ischemic conditions. After the insult, the cells were incubated under normoxic conditions for an additional 24 h in the presence of glucose but in the absence of IAA. Distinct reagents were added during ischemia to evaluate their neuroprotective activity by assessing cell viability and cell death in the cultures.
The cell status was assessed by measuring the release of lactate dehydrogenase (LDH) from dead cells. LDH was measured spectrophotometrically at 490 nm on a 96-well plate reader using the Cytotox 96 Kit according to the manufacturer's instructions (Promega). The LDH release was defined by the ratio of LDH released to the total LDH present in the cell at the beginning of the treatment.

**Q.** Which Membrane retention [1] does the source give for CC(C)NCC(O)COc1cccc2ccccc12 (stereo not drawn) [Propanolol, propranolol] here?
**A.** 30%

**Q.** And the “% Membrane retention” value ([1]; 200 µM, pH 7.4, 4 h at RT)?
**A.** 30.2%

**Q.** What about the “Pe x 10^−6 (cm/s)” value ([1]; 200 µM, pH 7.4, 4 h at RT) of the same compound?
**A.** 10.3 x 10^−6 cm/s

**Q.** For “Apo E: control compound in the in vitro cell model of BBB”, which “Pe x 10^−6 (cm/s)” value [2] is on record?
**A.** 2.2 x 10^−6 cm/s

**Q.** What about the “effective permeability coefficient (Pe)” value [2] of the same compound?
**A.** 2.2 ×10⁻⁶ cm/s

**Q.** For C#CCn1c(=O)c2c(nc(/C=C/c3cccc(OC)c3)n2C)n(CCCOP(=O)([O-])[O-])c1=O.[Na+].[Na+] [MSX-3, reference compound], which “neuroprotection: TH+ neurons in the substantia nigra” value [3] is on record?
**A.** not statistically significant

**Q.** Which results are given for “Transferrin: control compound in the in vitro cell model of BBB”?
**A.** Pe x 10^−6 (cm/s) [2]: 8.2 x 10^−6 cm/s; effective permeability coefficient (Pe) [2]: 8.2 ×10⁻⁶ cm/s

**Q.** With C[C@]12N[C@H](Cc3ccccc31)c1ccccc12 [MK-801, reference compound] as the compound, how does the “caspase 3 activation induced by NMDA” value [4] read?
**A.** reverted to basal levels

**Q.** For N[C@H](CCCP(=O)(O)O)C(=O)O [APV, (2R)-amino-5-phosphonovaleric acid, reference compound], which “protection against OGD (cell death, LDH release)” value [5] is on record?
**A.** similar

**Q.** For NC(=O)N1c2ccccc2C=Cc2ccccc21 [Carbamazepine], which “% Membrane retention” value ([1]; 200 µM, pH 7.4, 4 h at RT) is on record?
**A.** 0.5%

**Q.** And the Papp at 4 h, 200 µM ([1]; 200 µM, pH 7.4, 4 h at RT, read-out: Pe x 10^−6)?
**A.** 11.5 ×10⁻⁶ cm/s
